Each compound was assayed against Human CYP17 (Homo sapiens (Human), UniProt P05093) (assay: CYP17 Total SPA Assay). Conditions: microsomes from HEK2 cells stably transfected with CYP17; 3H-Pregnenolone 1 uM; NADPH 2 mM; 45 minutes at room temperature.
Type: biochemical
Experimental: CYP17 Total SPA Assay The assays were performed in U-bottom 384-well optiplates. […] The reaction was initiated by the combination of the microsomes and substrates in wells containing compound. The reaction was incubated at room temperature for 45 minutes and terminated by adding 7.5 μl of 0.2N HCl to each well. […] The plate was sealed and incubated overnight with shaking at 4° C. The beads were allowed to settle in the plate for 1 hour and the plate read on a TOPCOUNT® (Perkin-Elmer) plate reader. […] The final concentration of reagents in the assays are NADPH, 2 mM; 3H-Pregnenolone, 1 uM; microsomes, 1.25 ug/ml; […] Dose response curves were generated to determine the concentration required inhibiting 50% of enzyme activity (IC50). Compounds were dissolved at 10 mM in dimethylsulfoxide (DMSO) and evaluated at eleven concentrations, each in duplicate. IC50 values were derived by non-linear regression analysis. Table 22 below lists the IC50 values for the following Examples of this invention measured in the Total CYP17 SPA Assay hereinabove.

Sequence of Human CYP17 (P05093 whole entry): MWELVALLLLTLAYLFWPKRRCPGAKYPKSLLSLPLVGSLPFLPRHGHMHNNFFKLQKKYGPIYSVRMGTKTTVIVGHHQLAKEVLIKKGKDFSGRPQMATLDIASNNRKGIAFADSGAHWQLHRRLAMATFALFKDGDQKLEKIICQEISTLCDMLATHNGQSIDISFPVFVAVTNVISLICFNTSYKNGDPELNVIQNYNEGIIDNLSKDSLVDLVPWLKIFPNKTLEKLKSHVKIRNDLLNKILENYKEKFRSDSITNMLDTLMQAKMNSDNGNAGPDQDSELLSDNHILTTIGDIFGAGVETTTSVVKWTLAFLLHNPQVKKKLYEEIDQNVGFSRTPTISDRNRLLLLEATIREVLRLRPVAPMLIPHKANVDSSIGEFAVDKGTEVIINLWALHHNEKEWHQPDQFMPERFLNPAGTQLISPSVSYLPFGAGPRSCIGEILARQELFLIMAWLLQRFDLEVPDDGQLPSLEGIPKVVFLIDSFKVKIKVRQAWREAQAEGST

SMILES | IC50
COc1cc(NS(=O)(=O)C2CC2)ccc1-c1cncc2ccccc12 [Example 159, N-(4-(isoquinolin-4-yl)-3-methoxyphenyl)cyclopropanesulfonamide] | 6.2 nM
COc1cc(NS(=O)(=O)c2ccc(Cl)cc2)ccc1-c1cncnc1C [Example 172, 4-chloro-N-(3-methoxy-4-(4-methylpyrimidin-5-yl)phenyl)benzenesulfonamide] | 117 nM
CCS(=O)(=O)Nc1ccc(-c2cncc3ccccc23)c(OC)c1 [Example 156, N-(4-(isoquinolin-4-yl)-3-methoxyphenyl)ethanesulfonamide] | 8.1 nM
COc1cc(NS(=O)(=O)Cc2ccc(Cl)cc2)ccc1-c1cncnc1C [Example 173, 1-(4-chlorophenyl)-N-(3-methoxy-4-(4-methylpyrimidin-5-yl)phenyl)methanesulfonamide] | 3.4 nM
COc1cc(NS(=O)(=O)c2ccccc2)ccc1-c1cncnc1C [Example 165, N-(3-methoxy-4-(4-methylpyrimidin-5-yl)phenyl)benzenesulfonamide] | 5.4 nM
COc1cc(NS(C)(=O)=O)ccc1-c1cncn2cccc12 [Example 250, N-(3-methoxy-4-(pyrrolo[1,2-c]pyrimidin-4-yl)phenyl)methanesulfonamide] | 120 nM
COc1cc(NS(=O)(=O)c2cccc3cccnc23)ccc1-c1cncnc1C [Example 176, N-(3-methoxy-4-(4-methylpyrimidin-5-yl)phenyl)quinoline-8-sulfonamide] | 118 nM
Cc1ccncc1-c1ccc(NS(C)(=O)=O)cc1C(F)(F)F [Example 240, N-(4-(4-methylpyridin-3-yl)-3-(trifluoromethyl)phenyl)methanesulfonamide] | 26 nM
COc1cc(NS(C)(=O)=O)ccc1-c1cncnc1C1CCCCC1 [Example 221, N-(4-(4-cyclohexylpyrimidin-5-yl)-3-methoxyphenyl)methanesulfonamide] | 100 nM
CS(=O)(=O)Nc1ccc(-c2cnccc2C2CC2)c(C(F)(F)F)c1 [Example 243, N-(4-(4-cyclopropylpyridin-3-yl)-3-(trifluoromethyl)phenyl)methanesulfonamide] | 39 nM
COc1cc(NS(=O)(=O)c2ccccn2)ccc1-c1cncc2ccccc12 [Example 160, N-(4-(isoquinolin-4-yl)-3-methoxyphenyl)pyridine-2-sulfonamide] | 6 nM
COc1cc(NS(=O)(=O)CCc2ccccc2)ccc1-c1cncnc1C [Example 169, N-(3-methoxy-4-(4-methylpyrimidin-5-yl)phenyl)-2-phenylethanesulfonamide] | 119 nM
CCc1ncncc1-c1ccc(NS(C)(=O)=O)cc1OC [Example 218, N-(4-(4-ethylpyrimidin-5-yl)-3-methoxyphenyl) methanesulfonamide] | 49 nM
Cc1ccncc1-c1ccc(NS(=O)(=O)C2CC2)cc1OCC(F)(F)F [Example 184] | 7.7 nM
Cc1ccncc1-c1ccc(NS(C)(=O)=O)cc1OCC(F)F [Example 23, N-(3-(2,2-difluoroethoxy)-4-(4-methyl-3-pyridinyl)phenyl)methane sulfonamide] | 32 nM
COc1ccncc1-c1ccc(NS(C)(=O)=O)cc1OCC(F)(F)F [Example 233, N-(4-(4-methoxypyridin-3-yl)-3-(2,2,2-trifluoroethoxy)phenyl)methanesulfonamide] | 56 nM
COc1cc(NS(C)(=O)=O)ccc1-c1cncc2ccccc12 [Example 142, N-(4-(isoquinolin-4-yl)-3-methoxyphenyl)methanesulfonamide] | 6.6 nM
COc1cc(NS(=O)(=O)c2cn(C)c(C)n2)ccc1-c1cncc2ccccc12 [Example 158, N-(4-(isoquinolin-4-yl)-3-methoxyphenyl)-1,2-dimethyl-1H-imidazole-4-sulfonamide] | 118 nM
COc1cc(NS(=O)(=O)c2ccc3ccccc3c2)ccc1-c1cncnc1C [Example 175, N-(3-methoxy-4-(4-methylpyrimidin-5-yl)phenyl)naphthalene-2-sulfonamide] | 59 nM
CS(=O)(=O)Nc1ccc(-c2cncc3ccccc23)c(OCC(F)(F)F)c1 [Example 232, N-(4-(isoquinolin-4-yl)-3-(2,2,2-trifluoroethoxy)phenyl)methanesulfonamide] | 59 nM
CCCS(=O)(=O)Nc1ccc(-c2cncnc2C)c(OC)c1 [Example 163, N-(3-methoxy-4-(4-methylpyrimidin-5-yl)phenyl)propane-1-sulfonamide] | 134 nM
COc1cc(NS(C)(=O)=O)ccc1-c1cncnc1OC [Example 245] | 57 nM
COc1cc(NS(=O)(=O)c2ccccc2)ccc1-c1cncc2ccccc12 [Example 143, N-(4-(isoquinolin-4-yl)-3-methoxyphenyl)benzenesulfonamide] | 2.9 nM
CS(=O)(=O)Nc1ccc(-c2cnccc2Cl)c(OCCF)c1 [Example 236, N-(4-(4-chloropyridin-3-yl)-3-(2-fluoroethoxy)phenyl)methanesulfonamide] | 174 nM
COc1cc(NS(=O)(=O)c2cccnc2)ccc1-c1cncnc1C [Example 166, N-(3-methoxy-4-(4-methylpyrimidin-5-yl)phenyl)pyridine-3-sulfonamide] | 131 nM
COc1cc(NS(C)(=O)=O)ccc1-c1cncnc1C(C)C [Example 220, N-(4-(4-isopropylpyrimidin-5-yl)-3-methoxyphenyl) methanesulfonamide] | 103 nM
COc1cc(NS(=O)(=O)CC(C)C)ccc1-c1cncnc1C [Example 164] | 100 nM
CS(=O)(=O)Nc1ccc(-c2cncc3ccccc23)c(OC(F)(F)F)c1 [Example 228, N-(4-(isoquinolin-4-yl)-3-(trifluoromethoxy)phenyl)methanesulfonamide] | 3.2 nM

Further compounds by falling IC50, results first:

IC50 | SMILES
169 nM | COc1cc(NS(=O)(=O)C2CC2)ccc1-c1cncnc1C [Example 162, N-(3-methoxy-4-(4-methylpyrimidin-5-yl)phenyl)cyclopropanesulfonamide]
158 nM | COc1cc(NS(=O)(=O)CC(F)(F)F)ccc1-c1cncnc1C [Example 167, 2,2,2-trifluoro-N-(3-methoxy-4-(4-methylpyrimidin-5-yl)phenyl)ethanesulfonamide]
112 nM | COc1cc(NS(C)(=O)=O)ccc1-c1cncnc1C [Example 161, N-(3-methoxy-4-(4-methylpyrimidin-5-yl)phenyl)methanesulfonamide]
104 nM | Cc1cc(NS(C)(=O)=O)ccc1-c1cnccc1-c1ccccc1 [Example 12, N-(3-methyl-4-(4-phenyl-3-pyridinyl)phenyl)methanesulfonamide]
56 nM | COc1ccc(S(=O)(=O)Nc2ccc(-c3cncnc3C)c(OC)c2)cc1 [Example 170, 4-methoxy-N-(3-methoxy-4-(4-methylpyrimidin-5-yl)phenyl)benzenesulfonamide]
52 nM | Cc1cc(NS(C)(=O)=O)ccc1-c1cnccc1Cl [Example 195, N-(4-(4-chloro-3-pyridinyl)-3-methylphenyl)methanesulfonamide]
51 nM | CS(=O)(=O)Nc1ccc(-c2cncc3ncccc23)c(OCCF)c1 [Example 239, N-(3-(2-fluoroethoxy)-4-(1,7-naphthyridin-5-yl)phenyl)methanesulfonamide]
48 nM | CS(=O)(=O)Nc1ccc(-c2cncc3ccccc23)c(C(F)(F)F)c1 [Example 241, N-(4-(isoquinolin-4-yl)-3-(trifluoromethyl)phenyl)methanesulfonamide]
42 nM | Cc1ccncc1-c1ccc(NS(C)(=O)=O)cc1OCC(F)(F)F [Example 24, N-(4-(4-methyl-3-pyridinyl)-3-(2,2,2-trifluoroethoxy)phenyl)methane sulfonamide]
40 nM | CS(=O)(=O)Nc1ccc(-c2cncc3ccccc23)c(OCCF)c1 [Example 234, N-(3-(2-fluoroethoxy)-4-(isoquinolin-4-yl)phenyl)methanesulfonamide]
27 nM | COc1cc(NS(=O)(=O)c2cccc3cccnc23)ccc1-c1cncc2ccccc12 [Example 154, N-(4-(isoquinolin-4-yl)-3-methoxyphenyl)quinoline-8-sulfonamide]
11 nM | COc1cc(NS(=O)(=O)c2cccc3ccccc23)ccc1-c1cncc2ccccc12 [Example 144, N-(4-(isoquinolin-4-yl)-3-methoxyphenyl)naphthalene-1-sulfonamide]
9.6 nM | COc1cc(NS(=O)(=O)Cc2ccccc2)ccc1-c1cncnc1C [Example 168, N-(3-methoxy-4-(4-methylpyrimidin-5-yl)phenyl)-1-phenylmethanesulfonamide]
2.7 nM | COc1ccc(S(=O)(=O)Nc2ccc(-c3cncc4ccccc34)c(OC)c2)cc1 [Example 147, N-(4-(isoquinolin-4-yl)-3-methoxyphenyl)-4-methoxybenzenesulfonamide]
2.1 nM | COc1cc(NS(C)(=O)=O)ccc1-c1cnccc1C1CC1 [Example 225, N-(4-(4-cyclopropylpyridin-3-yl)-3-methoxyphenyl)methanesulfonamide]
1.4 nM | Cc1cc(NS(C)(=O)=O)ccc1-c1cnccc1OCC(F)(F)F [Example 198, N-(3-methyl-4-(4-(2,2,2-trifluoroethoxy)-3-pyridinyl)phenyl) methane sulfonamide]

— patent US8916553B2 (Bristol-Myers Squibb Company, priority 2010, dated 2014)
